Assay results taken from publication PMC9230590, “Pharmacokinetics and Tissue Distribution of Enavogliflozin in Mice and Rats” (Pharmaceutics, 2022).
Where two headings read alike, the source gives them in different places.

Tests used:
[1] = system: hepatocytes; design: method as in PMID 32932946; conditions: dog hepatocytes; cited from earlier work
[2] = system: hepatocytes; design: method as in PMID 32932946; conditions: human cells (hepatocytes); cited from earlier work
[3] = system: SGLT2; design: method as in PMID 32183468; conditions: cited from earlier work
[4] = Pharmacokinetics after oral administration in mice; type: in vivo, ICR mice; conditions: for AUC(0-inf) / AUC(0-t) / Cmax / half-life / MRT / Tmax / bioavailability: ICR, mouse, plasma; for bioavailability: po; for AUC∞/D / Cmax/D: dose normalized
Method: Mice were fasted with water ad libitum for at least 12 h before oral administration with enavogliflozin. Fifty-four mice were randomly divided into nine groups (n = 6 per group, Table 1) and were administered an enavogliflozin solution at doses of 0.3, 1, and 3 mg/kg via oral gavage. The drug was dissolved in a mixture of 10% DMSO and 90% saline. Blood samples were collected at 0, 0.083, 0.25, 0.5, 1, 2, 4, 8, and 24 h with the same procedures described above and provided in Table 1.
(§1) Concentrations of enavogliflozin in plasma and tissue homogenate samples were analyzed using an Agilent 6430 triple quadrupole liquid chromatography-mass spectrometry (LC–MS/MS) system (Agilent, Wilmington, DE, USA) following a previously published method.
(§2) The data were expressed as the means ± standard deviation for the groups. Pharmacokinetic parameters, such as the area under the plasma concentration–time curve during the period of observation (AUClast), AUC to infinite time (AUC∞), clearance (CL), and volume of distribution at steady-state (Vd,ss), the terminal half-life (t1/2), and mean residence time (MRT) were calculated using non-compartment analysis with WinNonlin software (version 5.1; Pharsights, Cary, NC, USA). The AUC ratios were calculated by dividing the AUClast of enavogliflozin in the tissue samples by the plasma AUClast values of enavogliflozin [15].

[5] = Tissue distribution after single oral administration in mice; type: in vivo, ICR mice; conditions: single oral 1 mg/kg; for half-life: read-out: T1/2 (elimination half-life) (converted); for AUC Ratio (AUC24 h, tissue / AUC24 h, plasma): 1 mg/kg
Method: Thirty-six ICR mice were fasted with water ad libitum for at least 12 h before oral administration of enavogliflozin and randomly divided into six groups (n = 6 per each sampling time point) and administered with an enavogliflozin solution at a dose of 1 mg/kg via oral gavage. Blood samples (approximately 0.2 mL) were collected at 0.5, 1, 2, 4, 8, 24 h via the abdominal artery. Subsequently, whole tissues, including stomach, small intestine, large intestine, liver, kidney, brain, heart, lung, spleen, and testis, were isolated. Blood samples were centrifuged at 12,000× g for 1 min to separate plasma. Tissue samples were minced thoroughly and homogenized with four volumes of saline using a tissue grinder. An aliquot (30 µL) of plasma and aliquots (50 µL) of tissue homogenate samples were stored at −80 °C until analysis.
as §1, §2

[6] = system: urinary glucose excretion; design: method as in PMID 35395697; conditions: single oral administration, dose range 0.2 to 5.0 mg, healthy male volunteers; cited from earlier work
[7] = design: method as in PMID 32183468; conditions: mice; cited from earlier work

Question: Which “In vitro hepatic clearance” value [1] does the source give for OC[C@H]1O[C@@H](c2cc(Cc3ccc(C4CC4)cc3)c(Cl)c3c2CCO3)[C@H](O)[C@@H](O)[C@@H]1O [enavogliflozin, (2S,3R,4R,5S,6R)-2-(7-chloro-6-(4-cyclopropylbenzyl) -2,3-dihydrobenzofuran-4-yl)-6-(hydroxymethyl)tetrahydro-2H-pyran-3,4,5-triol] here?
Answer: 17.9 mL/min/kg

Question: What about the “In vitro hepatic clearance” value [2] of the same compound?
Answer: 4.5 mL/min/kg

Question: What about the IC50 [3] of the same compound?
Answer: 0.8 ± 0.3 nM

Question: What about the “mode of SGLT2 inhibition” value ([3]; restrained recovery of SGLT2 activity after removal) of the same compound?
Answer: reversibly and competitively inhibited SGLT2

Question: What about the “difference in IC50 values for SGLT2 versus SGLT1” value ([3]; selectivity SGLT2 over SGLT1) of the same compound?
Answer: 667 fold

Question: What about the AUC(0-inf) ([4]; PO 0.3 mg/kg) of the same compound?
Answer: 498 ± 79 ng·h/mL

Question: And the AUC(0-t) ([4]; PO 0.3 mg/kg)?
Answer: 488 ± 77.9 ng·h/mL

Question: And the Cmax ([4]; PO 0.3 mg/kg)?
Answer: 72.1 ± 10.5 ng/mL

Question: What about the half-life ([4]; PO 0.3 mg/kg) of the same compound?
Answer: 258 ± 30 min

Question: And the AUC(0-inf) ([4]; PO 1 mg/kg)?
Answer: 1370 ± 270 ng·h/mL

Question: And the AUC(0-t) ([4]; PO 1 mg/kg)?
Answer: 1360 ± 270 ng·h/mL

Question: What about the Cmax ([4]; PO 1 mg/kg) of the same compound?
Answer: 216 ± 94.1 ng/mL

Question: What about the half-life ([4]; PO 1 mg/kg) of the same compound?
Answer: 210 ± 12 min

Question: What about the AUC(0-inf) ([4]; PO 3 mg/kg) of the same compound?
Answer: 4760 ± 543 ng·h/mL

Question: What about the AUC(0-t) ([4]; PO 3 mg/kg) of the same compound?
Answer: 4740 ± 532 ng·h/mL

Question: And the Cmax ([4]; PO 3 mg/kg)?
Answer: 943 ± 231 ng/mL

Question: And the half-life ([4]; PO 3 mg/kg)?
Answer: 198 ± 24 min

Question: And the MRT ([4]; PO 0.3 mg/kg)?
Answer: 5.7 ± 0.5 h

Question: And the Tmax ([4]; PO 0.3 mg/kg)?
Answer: 1.5 ± 0.5 h

Question: What about the MRT ([4]; PO 1 mg/kg) of the same compound?
Answer: 5.7 ± 0.5 h

Question: And the MRT ([4]; PO 3 mg/kg)?
Answer: 5.3 ± 0.5 h

Question: And the Tmax ([4]; PO 3 mg/kg)?
Answer: 0.9 ± 0.3 h

Question: What about the bioavailability ([4]; 0.3 mg/kg, PO 0.3 mg/kg, AUC∞,PO / AUC∞,IV, read-out: BA (absolute bioavailability)) of the same compound?
Answer: 97.2%

Question: What about the bioavailability ([4]; 1 mg/kg, PO 1 mg/kg, AUC∞,PO / AUC∞,IV, read-out: BA (absolute bioavailability)) of the same compound?
Answer: 84.5%

Question: What about the bioavailability ([4]; 3 mg/kg, PO 3 mg/kg, AUC∞,PO / AUC∞,IV, read-out: BA (absolute bioavailability)) of the same compound?
Answer: 93.7%

Question: What about the bioavailability ([4]; 3 mg/kg, range over doses 0.3, 1 and 3 mg/kg, read-out: Oral bioavailability) of the same compound?
Answer: 84.5 to 97.2%

Question: What about the “AUC∞/D” value ([4]; PO 0.3 mg/kg) of the same compound?
Answer: 1658.9 ± 263.5

Question: And the Cmax/D ([4]; PO 0.3 mg/kg)?
Answer: 240.5 ± 35.0

Question: What about the “AUC∞/D” value ([4]; PO 1 mg/kg) of the same compound?
Answer: 1373.8 ± 269.6

Question: What about the Cmax/D ([4]; PO 1 mg/kg) of the same compound?
Answer: 216.1 ± 94.1

Question: And the “AUC∞/D” value ([4]; PO 3 mg/kg)?
Answer: 1587.0 ± 181.1

Question: And the Cmax/D ([4]; PO 3 mg/kg)?
Answer: 314.3 ± 76.9

Question: What about the Kp ([5]; male, ICR, mouse, kidney (versus plasma), kidney, read-out: AUC Ratio (AUC24 h, tissue / AUC24 h, plasma)) of the same compound?
Answer: 41.9

Question: What about the Kp ([5]; male, ICR, mouse, kidney and intestinal tract (versus plasma), read-out: AUC ratio of kidney and intestinal tract compared with plasma) of the same compound?
Answer: > 10

Question: What about the Kp ([5]; male, ICR, mouse, large intestine (versus plasma), range over stomach, small and large intestine, read-out: plasma AUC ratio, gastrointestinal tract) of the same compound?
Answer: 8.5 to 12.1

Question: And the Kp ([5]; male, ICR, mouse, liver (versus plasma), liver, read-out: AUC Ratio (AUC24 h, tissue / AUC24 h, plasma))?
Answer: 5.8

Question: And the Kp ([5]; male, ICR, mouse, heart, read-out: AUC Ratio (AUC24 h, tissue / AUC24 h, plasma))?
Answer: 1.7 ± 0.2

Question: And the half-life ([5]; male, ICR, mouse, heart)?
Answer: 216 min

Question: What about the half-life ([5]; male, ICR, mouse, kidney) of the same compound?
Answer: 1740 min

Question: What about the Kp ([5]; male, ICR, mouse, large intestine, read-out: AUC Ratio (AUC24 h, tissue / AUC24 h, plasma)) of the same compound?
Answer: 8.5 ± 4.5

Question: What about the half-life ([5]; male, ICR, mouse, large intestine) of the same compound?
Answer: 204 min

Question: What about the half-life ([5]; male, ICR, mouse, liver) of the same compound?
Answer: 264 min

Question: What about the Kp ([5]; male, ICR, mouse, lung, read-out: AUC Ratio (AUC24 h, tissue / AUC24 h, plasma)) of the same compound?
Answer: 2 ± 0.2

Question: And the half-life ([5]; male, ICR, mouse, lung)?
Answer: 576 min

Question: And the AUC(0-t) ([5]; male, ICR, mouse, plasma, read-out: AUC24 h)?
Answer: 1360 ± 260 ng·h/mL

Question: What about the half-life ([5]; male, ICR, mouse, plasma) of the same compound?
Answer: 222 min

Question: And the Kp ([5]; male, ICR, mouse, small intestine, read-out: AUC Ratio (AUC24 h, tissue / AUC24 h, plasma))?
Answer: 10.8 ± 3

Question: And the half-life ([5]; male, ICR, mouse, small intestine)?
Answer: 156 min

Question: What about the Kp ([5]; male, ICR, mouse, spleen, read-out: AUC Ratio (AUC24 h, tissue / AUC24 h, plasma)) of the same compound?
Answer: 0.4

Question: What about the half-life ([5]; male, ICR, mouse, spleen) of the same compound?
Answer: 162 min

Question: What about the Kp ([5]; male, ICR, mouse, stomach, read-out: AUC Ratio (AUC24 h, tissue / AUC24 h, plasma)) of the same compound?
Answer: 12.1 ± 7

Question: What about the half-life ([5]; male, ICR, mouse, stomach) of the same compound?
Answer: 204 min

Question: And the Kp ([5]; male, ICR, mouse, testis, read-out: AUC Ratio (AUC24 h, tissue / AUC24 h, plasma))?
Answer: 0.5 ± 0.1

Question: What about the half-life ([5]; male, ICR, mouse, testis) of the same compound?
Answer: 1320 min

Question: And the Kp ([5]; male, ICR, mouse, versus plasma, read-out: AUC ratio in stomach, small intestine, large intestine, liver)?
Answer: > 5

Question: What about the “Concentration in brain tissue” value ([5]; brain) of the same compound?
Answer: not detected

Question: And the AUC24 h ([5]; heart)?
Answer: 2.19 ± 0.35 µg·h/g

Question: What about the “K (elimination constant)” value ([5]; heart) of the same compound?
Answer: 0.194 h⁻¹

Question: And the AUC24 h ([5]; kidney)?
Answer: 54.5 ± 3.5 µg·h/g

Question: And the “K (elimination constant)” value ([5]; kidney)?
Answer: 0.024 h⁻¹

Question: And the “AUC Ratio (AUC24 h, tissue / AUC24 h, plasma)” value ([5]; kidney)?
Answer: 41.9 ± 7.7

Question: What about the AUC24 h ([5]; large intestine) of the same compound?
Answer: 11.1 ± 4.3 µg·h/g

Question: And the “K (elimination constant)” value ([5]; large intestine)?
Answer: 0.204 h⁻¹

Question: What about the AUC24 h ([5]; liver) of the same compound?
Answer: 8.08 ± 1.1 µg·h/g

Question: And the “K (elimination constant)” value ([5]; liver)?
Answer: 0.159 h⁻¹

Question: What about the “AUC Ratio (AUC24 h, tissue / AUC24 h, plasma)” value ([5]; liver) of the same compound?
Answer: 5.8 ± 0.4

Question: And the AUC24 h ([5]; lung)?
Answer: 3.04 ± 0.29 µg·h/g

Question: And the “K (elimination constant)” value ([5]; lung)?
Answer: 0.072 h⁻¹

Question: And the “K (elimination constant)” value ([5]; plasma)?
Answer: 0.185 h⁻¹

Question: What about the AUC24 h ([5]; small intestine) of the same compound?
Answer: 14.2 ± 3.4 µg·h/g

Question: And the “K (elimination constant)” value ([5]; small intestine)?
Answer: 0.267 h⁻¹

Question: And the AUC24 h ([5]; spleen)?
Answer: 0.58 ± 0.11 µg·h/g

Question: What about the “K (elimination constant)” value ([5]; spleen) of the same compound?
Answer: 0.255 h⁻¹

Question: What about the AUC24 h ([5]; stomach) of the same compound?
Answer: 15.1 ± 6.4 µg·h/g

Question: And the “K (elimination constant)” value ([5]; stomach)?
Answer: 0.206 h⁻¹

Question: And the AUC24 h ([5]; testis)?
Answer: 0.95 ± 0.15 µg·h/g

Question: And the “K (elimination constant)” value ([5]; testis)?
Answer: 0.031 h⁻¹

Question: And the urinary glucose excretion [6]?
Answer: dose-dependent increase

Question: What about the “ratio of AUC in kidney to AUC in plasma” value [7] of the same compound?
Answer: 85.0 ± 16.1
